Where two headings read alike, the source gives them in different places.
Assays:
BAW (Spodoptera exigua) = assay: Bioassays on Beet Armyworm (BAW), 128-well diet tray assay; format: in vivo; conditions: for pest or weed control at 50 µg/cm2: Spodoptera exigua, 168 h, read-out: BAW Rating
Method: (§1) Bioassays on Beet Armyworm (“BAW”) and Corn Earworm (“CEW”) and Cabbage Looper (“CL”)
(§2) Certain molecules disclosed in this document were tested against BAW and CEW and CL using procedures described in the following examples. In the reporting of the results, the “BAW & CEW & CL Rating Table” was used (See Table Section).
Bioassays on BAW (Spodoptera exigua)
Bioassays on BAW were conducted using a 128-well diet tray assay. one to five second instar BAW larvae were placed in each well (3 mL) of the diet tray that had been previously filled with 1 mL of artificial diet to which 50 μg/cm^2 of the test compound (dissolved in 50 μL of 90:10 acetone-water mixture) had been applied (to each of eight wells) and then allowed to dry. Trays were covered with a clear self-adhesive cover, and held at 25° C., 14:10 light-dark for five to seven days. Percent mortality was recorded for the larvae in each well; activity in the eight wells was then averaged. The results are indicated in the table entitled “Table 3: Assay Results” (See Table Section).

CEW (Helicoverpa zea) = assay: Bioassays on Corn Earworm (CEW), 128-well diet tray assay; format: in vivo; conditions: for pest or weed control at 50 µg/cm2: Helicoverpa zea, 168 h, read-out: CEW Rating
Method: as §1, §2
Bioassays on CEW (Helicoverpa zea)
Bioassays on CEW were conducted using a 128-well diet tray assay. one to five second instar CEW larvae were placed in each well (3 mL) of the diet tray that had been previously filled with 1 mL of artificial diet to which 50 μg/cm^2 of the test compound (dissolved in 50 μL of 90:10 acetone-water mixture) had been applied (to each of eight wells) and then allowed to dry. Trays were covered with a clear self-adhesive cover, and held at 25° C., 14:10 light-dark for five to seven days. Percent mortality was recorded for the larvae in each well; activity in the eight wells was then averaged. The results are indicated in the table entitled “Table 3: Assay Results” (See Table Section).

[1] = percent mortality, second instar larvae, 50 μg/cm^2 on artificial diet, five to seven days, 25° C.

SMILES | pest or weed control at 50 µg/cm2 (BAW (Spodoptera exigua)) [%] | pest or weed control at 50 µg/cm2 (CEW (Helicoverpa zea); [1]) [%] | also measured
Cc1cc(/C=C/C(c2cc(Cl)cc(Cl)c2)C(F)(F)F)ccc1C(=O)NCc1ccccc1 (stereo not drawn) [AC11] | 50 to 100 | 50 to 100 | –
Cc1cc(/C=C/C(c2cc(Cl)cc(Cl)c2)C(F)(F)F)ccc1C(=O)NCc1ccccn1 (stereo not drawn) [AC12] | 50 to 100 | 50 to 100 | –
Cc1cc(/C=C/C(c2cc(Cl)cc(Cl)c2)C(F)(F)F)ccc1C(=O)NC(C)(C)c1ccccn1 (stereo not drawn) [AC16] | 50 to 100 | 50 to 100 | –
Cc1cc(/C=C/C(c2cc(Cl)cc(Cl)c2)C(F)(F)F)ccc1C(=O)NCc1ccoc1 (stereo not drawn) [AC20] | 50 to 100 | 50 to 100 | –
Cc1cc(/C=C/C(c2cc(Cl)c(Cl)c(Cl)c2)C(F)(F)F)ccc1C(=O)NCc1ccc(Cl)nc1 (stereo not drawn) [AC22] | 50 to 100 | 50 to 100 | –
Cc1cc(/C=C/C(c2cc(Cl)cc(Cl)c2)C(F)(F)F)ccc1C(=O)NCC(=O)NCC(F)(F)F (stereo not drawn) [AC24] | – | – | BAW Rating (BAW (Spodoptera exigua); [1]): A (50-100); CEW Rating (CEW (Helicoverpa zea); [1]): A (50-100)
O=C(NC1CS(=O)(=O)C1)c1ccc(/C=C/C(c2cc(Cl)c(Cl)c(Cl)c2)C(F)(F)F)cc1C(F)(F)F (stereo not drawn) [AC35] | 50 to 100 | 50 to 100 | –
Cc1cc(/C=C/C(c2cc(Cl)c(F)c(Cl)c2)C(F)(F)F)ccc1C(=O)NCc1ccc(Cl)nc1 (stereo not drawn) [AC38] | 50 to 100 | 50 to 100 | –
Cc1cc(/C=C/C(c2cc(Cl)cc(Cl)c2)C(F)(F)F)ccc1C(=O)NCc1cncnc1 (stereo not drawn) [AC39, 4-((E)-3-(3,5-Dichlorophenyl)-4,4,4-trifluorobut-1-enyl)-2-methyl-N-((pyrimidin-5-yl)methyl)benzamide] | 50 to 100 | 50 to 100 | –
Cc1cc(/C=C/C(c2cc(Cl)cc(Cl)c2)C(F)(F)F)ccc1C(=O)NCC(=O)NC1CC1 (stereo not drawn) [AC40] | 50 to 100 | 50 to 100 | –
Cc1cc(/C=C/C(c2cc(Cl)cc(Cl)c2)C(F)(F)F)ccc1C(=O)NCC(=O)NC1CSC1 (stereo not drawn) [AC41] | 50 to 100 | – | –
Cc1cc(/C=C/C(c2cc(Cl)cc(Cl)c2)C(F)(F)F)ccc1C(=O)NCc1nc2ccccc2s1 (stereo not drawn) [AC42] | 50 to 100 | – | –
Cc1cc(/C=C/C(c2cc(Cl)cc(Cl)c2)C(F)(F)F)ccc1C(=O)NN(C)c1ccccc1F (stereo not drawn) [AC45] | 50 to 100 | 50 to 100 | –
O=C(NCc1ccc(Cl)cn1)c1ccc(/C=C/C(c2cc(Cl)cc(Cl)c2)C(F)(F)F)cc1Br (stereo not drawn) [AC46] | 50 to 100 | 50 to 100 | –
O=C(CNC(=O)c1ccc(/C=C/C(c2cc(Cl)cc(Cl)c2)C(F)(F)F)cc1F)NCC(F)(F)F (stereo not drawn) [AC62] | 50 to 100 | 50 to 100 | –
O=C(CNC(=O)c1ccc(/C=C/C(c2cc(Cl)c(F)c(Cl)c2)C(F)(F)F)cc1F)NCC(F)(F)F (stereo not drawn) [AC68] | 50 to 100 | 50 to 100 | –
Cc1cc(/C=C/C(c2cc(Cl)cc(Cl)c2)C(F)(F)F)ccc1C(=O)NCC(=O)NC1CS(=O)(=O)C1 (stereo not drawn) [AC81] | 50 to 100 | – | –
O=C(NC1CS(=O)(=O)C1)c1ccc(/C=C/C(c2cc(Cl)c(F)c(Cl)c2)C(F)(F)F)cc1F (stereo not drawn) [AC84] | 50 to 100 | 50 to 100 | –
CCc1cc(/C=C/C(c2cc(Cl)c(F)c(Cl)c2)C(F)(F)F)ccc1C(=O)NC1CS(=O)(=O)C1 (stereo not drawn) [AC86] | 50 to 100 | 50 to 100 | –
FC(F)(F)CNC(=S)CNC(=S)c1ccc(/C=C/C(c2cc(Cl)c(Cl)c(Cl)c2)C(F)(F)F)cc1Br (stereo not drawn) [AC90, (E)-2-Bromo-N-(2-thioxo-2-((2,2,2-trifluoroethyl)amino)ethyl)-4-(4,4,4-trifluoro-3-(3,4,5-trichlorophenyl)but-1-en-1-yl)benzothioamide] | 50 to 100 | 50 to 100 | –
O=C(CNC(=S)c1ccc(/C=C/C(c2cc(Cl)c(Cl)c(Cl)c2)C(F)(F)F)cc1Br)NCC(F)(F)F (stereo not drawn) [AC91, (E)-2-(2-Bromo-4-(4,4,4-trifluoro-3-(3,4,5-trichlorophenyl)but-1-en-1-yl)phenylthioamido)-N-(2,2,2-trifluoroethyl)acetamide] | 50 to 100 | 50 to 100 | –

SMILES | pest or weed control at 50 µg/cm2 (BAW (Spodoptera exigua)) [%] | pest or weed control at 50 µg/cm2 (CEW (Helicoverpa zea); [1]) [%] | also measured
O=C(NCC(=S)NCC(F)(F)F)c1ccc(/C=C/C(c2cc(Cl)c(Cl)c(Cl)c2)C(F)(F)F)cc1Br (stereo not drawn) [AC92, (E)-2-Bromo-N-(2-thioxo-2-((2,2,2-trifluoroethyl)amino)ethyl)-4-(4,4,4-trifluoro-3-(3,4,5-trichlorophenyl)but-1-en-1-yl)benzamide] | 50 to 100 | 50 to 100 | –
Cc1cc(/C=C\C(c2cc(Cl)cc(Cl)c2)C(F)(F)F)ccc1C(=O)NCC(=O)NC1CC1 (stereo not drawn) [AC93] | 50 to 100 | – | –
O=C(CNC(=O)c1ccc(/C=C/C(c2cc(F)c(Cl)c(F)c2)C(F)(F)F)cc1Br)NCC(F)(F)F (stereo not drawn) [AC102] | – | 50 to 100 | –
O=C(NC1CCN(C2COC2)CC1)c1ccc(/C=C/C(c2cc(Cl)c(Cl)c(Cl)c2)C(F)(F)F)cc1Br (stereo not drawn) [AC108, (E)-2-Bromo-N-(1-(oxetan-3-yl)piperidin-4-yl)-4-(4,4,4-trifluoro-3-(3,4,5-trichlorophenyl)but-1-en-1-yl)benzamide] | 0 to 50 | – | –
Cc1cc(/C=C/C(c2cc(Cl)cc(Cl)c2)C(F)(F)F)ccc1C(=O)NCC1CCCO1 (stereo not drawn) [AC118] | 50 to 100 | – | –
O=C(Cn1ncc2cc(/C=C/C(c3cc(Cl)c(F)c(Cl)c3)C(F)(F)F)ccc2c1=O)NCC(F)(F)F (stereo not drawn) [BC14, (E)-2-(6-(3-(3,5-Dichloro-4-fluorophenyl)-4,4,4-trifluorobut-1-en-1-yl)-1-oxophthalazin-2(1H)-yl)-N-(2,2,2-trifluoroethyl)acetamide] | 50 to 100 | – | –
O=C(Cc1ccc(Cl)nc1)NCc1ccc(/C=C/C(c2cc(Cl)c(Cl)c(Cl)c2)C(F)(F)F)cc1Cl (stereo not drawn) [CC14] | 50 to 100 | – | –
CCNC(=O)NCc1ccc(/C=C/C(c2cc(Cl)cc(Cl)c2)C(F)(F)F)cc1Cl (stereo not drawn) [CC31, (E)-1-(2-Chloro-4-(3-(3,5-dichlorophenyl)-4,4,4-trifluorobut-1-en-1-yl)benzyl)-3-ethylurea] | 0 to 50 | – | –
O=C(NCc1ccc(/C=C/C(c2cc(Cl)c(Cl)c(Cl)c2)C(F)(F)F)cc1Cl)Oc1ccccc1Cl (stereo not drawn) [CC40] | – | – | pest or weed control at 50 µg/cm2 (CEW (Helicoverpa zea)): 50 to 100%
O=C(CC(F)(F)F)NCc1ccc(/C=C/C(c2cc(Cl)c(Cl)c(Cl)c2)C(F)(F)F)c2ccccc12 (stereo not drawn) [CC46, (E)-3,3,3-Trifluoro-N-((4-(4,4,4-trifluoro-3-(3,4,5-trichlorophenyl)but-1-en-1-yl)naphthalen-1-yl)methyl)propanamide] | – | 50 to 100 | –
O=C(NOc1ccc(/C=C/C(c2cc(Cl)c(Cl)c(Cl)c2)C(F)(F)F)cc1)C1CC1 (stereo not drawn) [CC52, (E)-N-(4-(4,4,4-Trifluoro-3-(3,4,5-trichlorophenyl)but-1-en-1-yl)phenoxy)cyclopropanecarboxamide] | 50 to 100 | – | –
FC(F)(F)C(/C=C/c1ccc(-n2cncn2)cc1)c1ccccc1 (stereo not drawn) [DC3] | 0 to 50 | – | –
FC(F)(F)C(/C=C/c1ccc(-n2cncn2)cc1)c1ccc(Cl)cc1 (stereo not drawn) [DC4] | 50 to 100 | – | –
Fc1ccc(C(/C=C/c2ccc(-n3cncn3)cc2)C(F)(F)F)cc1 (stereo not drawn) [DC7] | 50 to 100 | – | –
Fc1cc(F)cc(C(/C=C/c2ccc(-n3cncn3)cc2)C(F)(F)F)c1 (stereo not drawn) [DC8] | 50 to 100 | – | –
Cc1cc(C)cc(C(/C=C/c2ccc(-n3cncn3)cc2)C(F)(F)F)c1 (stereo not drawn) [DC11] | 50 to 100 | – | –
COc1c(Cl)cc(C(/C=C/c2ccc(-n3cncn3)cc2)C(F)(F)F)cc1Cl (stereo not drawn) [DC20] | 50 to 100 | – | –
Cc1ncnn1-c1ccc(/C=C/C(c2cc(Cl)cc(Cl)c2)C(F)(F)F)cc1 (stereo not drawn) [DC23] | – | 50 to 100 | –
OCc1cc(/C=C/C(c2cc(Cl)cc(Cl)c2)C(F)(F)F)ccc1-n1cncn1 (stereo not drawn) [DC53] | – | 50 to 100 | –
Cc1cc(-n2cncn2)ccc1/C=C/C(c1cc(Cl)cc(Cl)c1)C(F)(F)F (stereo not drawn) [DC65] | – | 50 to 100 | –
